Converted amounts (≈) assume the structure as drawn.
Tests used:
[1] = test system: Bacillus cereus (IFO 3466); test: Antiseptic action: MIC, agar plate dilution method; type: cell-based; conditions: Bacillus cereus, IFO3466, read-out: Minimum inhibitory concentration
[2] = test system: HLC-1 cells; test: Apoptosis controlling action, propidium iodide flow cytometry; type: cell-based, human; conditions: HLC-1 cells (1 × 10^5 cells/ml)
Procedure: (§1) The solution was distributed to a microplate in one milliliter per well, and the solution in each well was diluted in series with a fresh preparation of the same medium as used in the above.
(§2) HL-60 cells, ATCC CCL-240, derived from a patient with acute promyelocytic leukemia; U-937 cells, ATCC CRL-1593.2, derived from a patient with human histiocytic lymphoma; HGC-27 cells, RCB0500, derived from a patient with gastric cancer; HLC-1 cells, RCB0083, derived from a patient with lung adenocarcinoma; and C6 cells, ATCC CCL-107, derived from rat glial tumor, were respectively suspended in RPMI1640 medium (pH 7.2) to give a cell density of 1×10^6 cells/ml or 2×10^5 cells/ml. To the microplate, containing a one milliliter dilution of 20, 10 or 5.0 μg/ml of Compound 1, was added one milliliter per well of either of the above cell suspensions and used for test systems. All the test systems were made duplex and respectively subjected to 24- and 48-hour incubations in a 5 v/v % CO2 incubator at 37° C. A system free of Compound 1 was provided and treated similarly as above and used for control.
(§3) According to the method by I. Nicoletti et al. in Journal of Immunological Methods, Vol. 139, pp. 271-279 (1991), the apoptosis-induced cells in the test systems and control were stained by propidium iodide and determined for the percentage of the stained cells to the total cells in such a manner that transferring each of the cultures to polypropylene tubes, centrifuging the tubes, removing the resulting supernatants, washing the cells' sediments with phosphate buffered saline containing 0.3 v/v % calf serum albumin, and further centrifuging the washed cells to remove supernatants. The newly formed sediments were respectively mixed with 50 μg/ml of propidium iodide commercialized by Sigma Chemical Company, St. Louis, Mo., USA, 0.1 w/v % sodium citrate, and0.1 w/v % “TRITON X-100”, a surfactant commercialized by Sigma Chemical Company, St. Louis, Mo., USA, in respective volumes of 1.5 ml to stain the cells by propidium iodide. The stained cells were stored at 4° C. in the dark overnight. The stained cells of each test system were analyzed on “EPICS PROFILE II”, a flow cytometry commercialized by Beckman Coulter, Inc., CA, USA. Based on the data the percentage of the stained cells to the total cells in each test system was measured for apoptosis occurrence.

[3] = test system: HGC-27 cells; test: as above; type: cell-based, human; conditions: HGC-27 cells (1 × 10^5 cells/ml)
Procedure: as §1, §2, §3

[4] = test system: HL-60 cells; test: as above; type: cell-based, human; conditions: HL-60 cells (5 × 10^5 cells/ml)
Procedure: as §1, §2, §3

[5] = test system: U-937 cells; test: as above; type: cell-based, human; conditions: U-937 cells (5 × 10^5 cells/ml)
Procedure: as §1, §2, §3

[6] = test system: Staphylococcus aureus (ATCC 6538P); test: Antiseptic action: MIC, agar plate dilution method; type: cell-based; conditions: Staphylococcus aureus, ATCC6538P, read-out: Minimum inhibitory concentration
[7] = test system: HL-60 cells, HGC-27 cells, HLC-1 cells; test: Antitumor action, comparison over the tumor cells of Table 10; type: cell-based, human; conditions: from the 50% growth inhibitory concentrations of Table 10
Excerpt: Solutions in each well were serially diluted with a fresh preparation of the same RPMI1640 medium (pH 7.2) as used in the above.
HL-60 cells (ATCC CCL-240) derived from a patient with acute promyelocytic leukemia, HGC-27 cells (RCB0500) derived from a patient with gastric cancer, and HLC-1 cells (RCB0083) derived from a patient with lung adenocarcinoma were respectively suspended in fresh preparations of the same RPMI1640 medium (pH 7.2) as used in the above to give respective cell concentrations of 4×10^5 cells/ml, 4×10^5 cells/ml, and 2×10^6 cells/ml. Each cell suspension was distributed to a microplate in a volume of 50 μl/well and incubated at 37° C. for 48 hours in a 5 v/v % CO2 incubator. To each microplate, a 25 v/v % aqueous glutaraldehyde solution was added in a volume of 20 μl/well, and the microplate was allowed to stand for 15 min to fix the cells. Then, the cells adhered to the wells were washed with water, admixed with a 0.05 w/v % aqueous methylene blue solution in a volume of 100 μl/well, and further allowed to stand for 15 min to stain the cells. Thereafter, an excessive amount of the staining solution was removed from the wells by washing with water, and the cells were dried, admixed with 300 μl/well of 0.33 N hydrochloric acid, stirred sufficiently, and measured for absorption at a wavelength of 620 nm. […]

[8] = test system: Pseudomonas aeruginosa (IFO 3453); test: Antiseptic action: MIC, agar plate dilution method; type: cell-based; conditions: Pseudomonas aeruginosa, IFO3453, read-out: Minimum inhibitory concentration
[9] = test system: C6 cells; test: Apoptosis controlling action, propidium iodide flow cytometry; type: cell-based, rat; conditions: C6 cells (1 × 10^5 cells/ml)
Procedure: as §1, §2, §3

[10] = test system: Helicobacter pylori (NCTC 11638); test: Antiseptic action: MIC, agar plate dilution method; type: cell-based
[11] = test system: vesicular stomatitis virus (VSV); test: microbe, parasite or virus in culture; type: cell-based; conditions: L929, 24 h, read-out: 50% Growth inhibitory concentration
[12] = 48 hours, 2.5 μg/ml, control 1.5
[13] = 48 hours, 5.0 μg/ml, control 1.5
[14] = 48 hours, 10 μg/ml, control 1.5

Work on `O=C1c2ccccc2-n2c1nc1ccccc1c2=O` [Compound 1, 6,12-dihydro-6,12-dioxoindolo[2,1-b]quinazoline] yielded an MIC [1] of 39 µg/mL (≈ 157 µM), an Apoptosis occurrence ([2]; 24 hours, 2.5 μg/ml, control 2.7) of 3.7% and an Apoptosis occurrence ([2]; 24 hours, 5.0 μg/ml, control 2.7) of 4.2%. For the same compound, the Apoptosis occurrence ([2]; 24 hours, 10 μg/ml, control 2.7) was 8.1%, the Apoptosis occurrence [2, 12] was 5.8% and the Apoptosis occurrence [2, 13] was 7.3%. It also gave an Apoptosis occurrence [2, 14] of 21.8%, an Apoptosis occurrence ([3]; 24 hours, 2.5 μg/ml, control 1.5) of 1.9% and an Apoptosis occurrence ([3]; 24 hours, 5.0 μg/ml, control 1.5) of 1.7%. It also gave an Apoptosis occurrence ([3]; 24 hours, 10 μg/ml, control 1.5) of 3.5%, an Apoptosis occurrence ([3]; 48 hours, 2.5 μg/ml, control 1.4) of 2.2% and an Apoptosis occurrence ([3]; 48 hours, 5.0 μg/ml, control 1.4) of 4.1%. For the same compound, the Apoptosis occurrence ([3]; 48 hours, 10 μg/ml, control 1.4) was 14.1%, the Apoptosis occurrence ([4]; 24 hours, 2.5 μg/ml, control 0.7) was 0.7% and the Apoptosis occurrence ([4]; 24 hours, 5.0 μg/ml, control 0.7) was 1.7%. It also gave an Apoptosis occurrence ([4]; 24 hours, 10 μg/ml, control 0.7) of 11.8%, an Apoptosis occurrence [4, 12] of 1.3% and an Apoptosis occurrence [4, 13] of 4.2%. For the same compound, the Apoptosis occurrence [4, 14] was 22.6%, the Apoptosis occurrence ([5]; 24 hours, 2.5 μg/ml, control 3.2) was 3.2% and the Apoptosis occurrence ([5]; 24 hours, 5.0 μg/ml, control 3.2) was 5.0%. It also gave an Apoptosis occurrence ([5]; 24 hours, 10 μg/ml, control 3.2) of 6.8%, an Apoptosis occurrence ([5]; 48 hours, 2.5 μg/ml, control 4.5) of 5.2% and an Apoptosis occurrence ([5]; 48 hours, 5.0 μg/ml, control 4.5) of 11.7%. The Apoptosis occurrence ([5]; 48 hours, 10 μg/ml, control 4.5) was 66.9%, the MIC [6] was 39 µg/mL (≈ 157 µM) and the “Antitumor action relative to Compound 2” value [7] was no less than 10 times. It also gave an MIC [8] of 39 µg/mL (≈ 157 µM), an Apoptosis occurrence ([9]; 24 hours, 2.5 μg/ml, control 0.3) of 15.9% and an Apoptosis occurrence ([9]; 24 hours, 5.0 μg/ml, control 0.3) of 18.4%. For the same compound, the Apoptosis occurrence ([9]; 24 hours, 10 μg/ml, control 0.3) was 27.6%, the Apoptosis occurrence ([9]; 48 hours, 2.5 μg/ml, control 0.4) was 38.4% and the Apoptosis occurrence ([9]; 48 hours, 5.0 μg/ml, control 0.4) was 64.8%. For the same compound, the Apoptosis occurrence ([9]; 48 hours, 10 μg/ml, control 0.4) was 67.1%, the MIC ([10]; Helicobacter pylori, NCTC11638, read-out: Minimum inhibitory concentration) was 2.5 µg/mL (≈ 10.1 µM) and the “Inhibition of the growth of Helicobacter pylori (in words)” value ([10]; comment on Table 8) was “strongly inhibited the growth”. The IC50 [11] was 13 µg/mL (≈ 52.4 µM).
